Measured values as given in the supplement of paper PMC11061612.

Columns and labels:
[1] = tested on: SNU-C1 (Colorectal Carcinoma); test: Bliss excess, mean over the matrix (fraction); higher = more synergy
Procedure, shortened: (§1)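 After 24 hours at 37°C and 5% CO2 in 1536-well plates, cells in DMEM/F12 or RPMI plus 10% FBS received two-drug dose matrices for 72 hours. Viability came from CellTiter-Glo 2.0 luminescence and was scaled as inhibition, anchored at 0 by vehicle wells and at 1 by blank wells. Combination Emax is taken as the second-highest inhibition in the matrix, and Bliss excess as the observed combination effect less EA + EB − EA·EB, with EA and EB the single-agent effects.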

[2] = tested on: NCI-N87 (Gastric Carcinoma); test: as above
Procedure, shortened: as §1

[3] = tested on: HSC-2 (Oral Cavity Carcinoma); test: as above
Procedure, shortened: as §1

[4] = tested on: NB7 (Neuroblastoma); test: as above
Procedure, shortened: as §1

[5] = tested on: SCC-9 (Oral Cavity Carcinoma); test: as above
Procedure, shortened: as §1

[6] = tested on: KINGS-1 (Low Grade Glioma); test: as above
Procedure, shortened: as §1

[7] = tested on: OCUB-M (Breast Carcinoma); test: as above
Procedure, shortened: as §1

[8] = tested on: EW-3 (Ewing's Sarcoma); test: as above
Procedure, shortened: as §1

[9] = tested on: OCUM-1 (Gastric Carcinoma); test: as above
Procedure, shortened: as §1

[10] = tested on: TGBC11TKB (Gastric Carcinoma); test: as above
Procedure, shortened: as §1

[11] = tested on: GI-1 (Glioblastoma); test: as above
Procedure, shortened: as §1

[12] = tested on: JHH-7 (Hepatocellular Carcinoma); test: as above
Procedure, shortened: as §1

[13] = tested on: VMRC-LCD (Lung Adenocarcinoma); test: as above
Procedure, shortened: as §1

[14] = tested on: H-EMC-SS (Chondrosarcoma); test: as above
Procedure, shortened: as §1

[15] = tested on: LC4-1 (B-Lymphoblastic Leukemia); test: as above
Procedure, shortened: as §1

[16] = tested on: SNU-C1 (Colorectal Carcinoma); test: combination Emax (second highest fraction inhibited in the dose matrix, 72 h); higher = more inhibition; extreme values may be limits of the assay
Procedure, shortened: as §1

[17] = tested on: NCI-N87 (Gastric Carcinoma); test: as above
Procedure, shortened: as §1

[18] = tested on: HSC-2 (Oral Cavity Carcinoma); test: as above
Procedure, shortened: as §1

[19] = tested on: NB7 (Neuroblastoma); test: as above
Procedure, shortened: as §1

[20] = tested on: SCC-9 (Oral Cavity Carcinoma); test: as above
Procedure, shortened: as §1

[21] = tested on: KINGS-1 (Low Grade Glioma); test: as above
Procedure, shortened: as §1

[22] = tested on: OCUB-M (Breast Carcinoma); test: as above
Procedure, shortened: as §1

[23] = tested on: EW-3 (Ewing's Sarcoma); test: as above
Procedure, shortened: as §1

[24] = tested on: OCUM-1 (Gastric Carcinoma); test: as above
Procedure, shortened: as §1

[25] = tested on: TGBC11TKB (Gastric Carcinoma); test: as above
Procedure, shortened: as §1

[26] = tested on: GI-1 (Glioblastoma); test: as above
Procedure, shortened: as §1

[27] = tested on: JHH-7 (Hepatocellular Carcinoma); test: as above
Procedure, shortened: as §1

[28] = tested on: VMRC-LCD (Lung Adenocarcinoma); test: as above
Procedure, shortened: as §1

[29] = tested on: H-EMC-SS (Chondrosarcoma); test: as above
Procedure, shortened: as §1

[30] = tested on: LC4-1 (B-Lymphoblastic Leukemia); test: as above
Procedure, shortened: as §1
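For Bliss excess, mean over the matrix in this document: after 72 h of two-drug dosing.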

In the case of `CN(CCO)CC[C@H](CSc1ccccc1)Nc1ccc(S(=O)(=O)NC(=O)c2ccc(N3CCC([C@@H](O)c4ccccc4-c4ccc(Cl)cc4)CC3)cc2)cc1S(=O)(=O)C(F)(F)F` [AZD4320] + CC(=O)O[C@H]1C(=O)[C@@]2(C)[C@H]([C@H](OC(=O)c3ccccc3)[C@]3(O)C[C@H](OC(=O)[C@H](O)[C@@H](NC(=O)c4ccccc4)c4ccccc4)C(C)=C1C3(C)C)[C@]1(OC(C)=O)CO[C@@H]1C[C@@H]2O [Paclitaxel] (first compound max 1 µM, 7x7, partner max 3 µM), the Bliss excess [1] was 0.179, the Bliss excess [2] was 0.182 and the Bliss excess [3] was 0.0087. It also gave a Bliss excess [4] of 0.131, a Bliss excess [5] of 0.109 and a Bliss excess [6] of 0.18. For the same molecule, the Bliss excess [7] was 0.0811, the Bliss excess [8] was 0.0269 and the Bliss excess [9] was 0.0074. The Bliss excess [10] was 0.0373, the Bliss excess [11] was 0.0374 and the Bliss excess [12] was 0.144. For the same molecule, the Bliss excess [13] was 0.0035, the Bliss excess [14] was 0.0785 and the Bliss excess [15] was 0.0047. The “combination Emax” value [16] was 0.829, the “combination Emax” value [17] was 0.921 and the “combination Emax” value [18] was 1. For the same molecule, the “combination Emax” value [19] was 0.94, the “combination Emax” value [20] was 0.745 and the “combination Emax” value [21] was 0.966. For the same molecule, the “combination Emax” value [22] was 1, the “combination Emax” value [23] was 0.961 and the “combination Emax” value [24] was 0.955. The “combination Emax” value [25] was 0.994, the “combination Emax” value [26] was 1 and the “combination Emax” value [27] was 0.951. For the same molecule, the “combination Emax” value [28] was 0.918, the “combination Emax” value [29] was 0.672 and the “combination Emax” value [30] was 1.
With `CN(CCO)CC[C@H](CSc1ccccc1)Nc1ccc(S(=O)(=O)NC(=O)c2ccc(N3CCC([C@@H](O)c4ccccc4-c4ccc(Cl)cc4)CC3)cc2)cc1S(=O)(=O)C(F)(F)F` [AZD4320] + CS(=O)(=O)CCNCc1ccc(-c2ccc3ncnc(Nc4ccc(OCc5cccc(F)c5)c(Cl)c4)c3c2)o1 [Lapatinib] (first compound max 1 µM, 7x7, partner max 10 µM) the Bliss excess [1] was 0.0215, the Bliss excess [2] was 0.0453 and the Bliss excess [3] was 0.114. It also gave a Bliss excess [4] of 0.0034, a Bliss excess [5] of 0.0105 and a Bliss excess [6] of 0.0401. The Bliss excess [8] was 0.0104, the Bliss excess [9] was 0.0032 and the Bliss excess [10] was 0.0791. It also gave a Bliss excess [11] of 0.0992, a Bliss excess [12] of -0.0153 and a Bliss excess [13] of 0.0981. The Bliss excess [14] was 0.0321, the Bliss excess [15] was 0.0427 and the “combination Emax” value [16] was 0.666. The “combination Emax” value [17] was 0.982, the “combination Emax” value [18] was 1 and the “combination Emax” value [19] was 0.189. The “combination Emax” value [20] was 0.99, the “combination Emax” value [21] was 0.962 and the “combination Emax” value [22] was 0.887. For the same molecule, the “combination Emax” value [23] was 0.984, the “combination Emax” value [24] was 1 and the “combination Emax” value [25] was 0.674. For the same molecule, the “combination Emax” value [26] was 0.962, the “combination Emax” value [27] was 0.971 and the “combination Emax” value [28] was 0.923. The “combination Emax” value [29] was 0.439 and the “combination Emax” value [30] was 1.
